# Reference: PMC12479633, “A Phase IIa, Single-Blind, Placebo-Controlled, Parallel-Group Study to Assess Safety, Tolerability, and Pharmacokinetics/Pharmacodynamics of Brensocatib in Adults with Cystic Fibrosis” (Clinical Pharmacokinetics, 2025)
# Where “and” joins values, the source holds several entries; their conditions need not be identical. Equal values may be shown once. Read-outs that look alike come from different tables or passages of the source.
# How the values were obtained:
# [1] = tested on: CYP3A; parameters: method as in PMID 35411669; conditions: cited from earlier work
# [2] = tested on: cathepsin G (CatG); assay: Active CatG in blood (white blood cell pellets) of adults with CF; type: in vivo, human; conditions: for CatG, median % reduction relative to baseline: Blood, day 29
# Method: Blood PD samples were collected at screening; predose on days 1, 2, 14, 28, and 29; and at the follow-up visit (day 35). The samples were analyzed at an external service provider to determine the concentrations of active NE, PR3, and CatG in white blood cell pellets using validated enzymatic methods with quantification limits of 87.9 ng/mL for NE and PR3 and 70.3 ng/mL for CatG. The fit-for-purpose methods details were published internally and stored within Insmed’s document repository.
# (§1) If a participant experienced an intercurrent event, defined as use of antibiotics during an acute event that could influence NSP levels, the data were not included in the PD analysis. In assessing treatment-emergent adverse events (TEAEs), the “while-on-treatment” strategy was implemented, which encompassed the 28-day period following the final dose of study drug. With this strategy, data collected prior to the occurrence of the intercurrent event, that is, to discontinuation of brensocatib, were included in the analysis.
# [3] = tested on: NSP activity (NE, CatG, PR3); assay: Exposure-response of NSP activity reduction (LOESS regression); type: in vivo, human; conditions: particularly in blood
# Method: The NSP activity reduction reached a saturation point at approximately 25 mg, as indicated by the plateau of the associated PK measures. The sensitivity of reduction for brensocatib was greatest for CatG, followed by NE, and PR3 (Fig. 6).
# [4] = tested on: breast cancer resistance protein (BCRP); parameters: method as in PMID 35411669; conditions: cited from earlier work
# [5] = tested on: proteinase 3 (PR3); assay: PR3 activity in sputum of adults with CF; type: in vivo, human
# From the text: as §1
# (§2) On the basis of the comparability of PK between participants with and without concomitant use of CFTR modulators, NSP activity (NE, CatG, PR3) in blood and sputum was analyzed using the combined data sets without the CFTR modulator stratum.
# [6] = tested on: neutrophil elastase (NE); parameters: method as in PMID 32897034; conditions: NCFBE, cited from earlier work
# [7] = tested on: cathepsin G (CatG); assay: CatG activity in sputum of adults with CF; type: in vivo, human
# From the text: as §1, §2
# [8] = parameters: method as in PMID 35411669, PMID 29484635; conditions: cited from earlier work
# [9] = tested on: neutrophil elastase (NE); assay: NE activity in sputum of adults with CF; type: in vivo, human
# From the text: as §1, §2
# [10] = tested on: neutrophil elastase (NE); parameters: method as in earlier work; conditions: Healthy adults, cited from earlier work
smiles,measurement,setting,value
Cn1c(=O)oc2ccc(-c3ccc(C[C@@H](C#N)NC(=O)[C@@H]4CNCCCO4)cc3)cc21 [Brensocatib],substrate status,[1]; CYP3A,substrate
same,inhibition or induction of CYP3A,[1],not a clinically meaningful inhibitor or inducer
same,"CatG, median % reduction relative to baseline","[2]; 10 mg QD, n = 6",75.1 (n = 6) %
same,"CatG, median % reduction relative to baseline","[2]; 25 mg QD, n = 7",84.9 (n = 7) %
same,"CatG, median % reduction relative to baseline","[2]; 40 mg QD, n = 7",91.3 (n = 7) %
same,median percent reduction of CatG activity in blood,[2]; in all doses of brensocatib,75–91%
same,dose at which NSP activity reduction reached a saturation point,[3],approximately 25 mg
same,substrate status,[4],substrate
same,"PR3, median % reduction relative to baseline","[5]; 10 mg QD, day 29, n = 5",59.1 (n = 5) %
same,"PR3, median % reduction relative to baseline","[5]; 25 mg QD, day 29, n = 3",67.1 (n = 3) %
same,"PR3, median % reduction relative to baseline","[5]; 40 mg QD, day 29, n = 1",−17.0 (n = 1) %
same,Median % reduction of NE activity in the blood,"[6]; 10 mg, n = 38",30.9% and 30.9 (n = 38) %
same,Median % reduction of NE activity in the blood,"[6]; 25 mg, n = 45",66.5% and 66.5 (n = 45) %
same,"CatG, median % reduction relative to baseline","[7]; 10 mg QD, day 29, n = 5",51.3 (n = 5) %
same,"CatG, median % reduction relative to baseline","[7]; 25 mg QD, day 29, n = 3",0 (n = 3) %
same,"CatG, median % reduction relative to baseline","[7]; 40 mg QD, day 29, n = 2",0 (n = 2) %
same,urinary excretion,[8]; at steady state,approximately 20%
same,elimination half-life,[8]; single doses of 5–120 mg and QD dosing at 10–40 mg,20 to 30 h
same,steady state accumulation,[8]; single or multiple dosing,approximately twofold
same,"NE, median % reduction relative to baseline","[9]; 10 mg QD, day 29, n = 5",40.7 (n = 5) %
same,"NE, median % reduction relative to baseline","[9]; 25 mg QD, day 29, n = 3",77.8 (n = 3) %
same,"NE, median % reduction relative to baseline","[9]; 40 mg QD, day 29, n = 2",69.9 (n = 2) %
same,Median % reduction of NE activity in the blood,"[10]; 10 mg, n = 6",34.8 (n = 6) %
same,Median % reduction of NE activity in the blood,"[10]; 25 mg, n = 7",42.6 (n = 7) %
same,Median % reduction of NE activity in the blood,"[10]; 40 mg, n = 7",55.1 (n = 7) %
